The results in this text go back to PMC9217908, “Screening of commonly prescribed drugs for effects on the CAT1-mediated transport of L-arginine and arginine derivatives” (Amino Acids, 2022).

By inhibition is commonly meant the drop in the measured response relative to a control, in per cent.

Common to all, as to assay: cell-based
For test [1], the target named is T1, CAT1 (cationic amino acid transporter 1, CAT1/SLC7A1) (Homo sapiens, UniProt P30825).
T1 construct: full-length human transporter stably transfected in HEK cells (HEK-CAT1); net uptake against HEK-VC vector control cells
T1 sequence (P30825 whole entry): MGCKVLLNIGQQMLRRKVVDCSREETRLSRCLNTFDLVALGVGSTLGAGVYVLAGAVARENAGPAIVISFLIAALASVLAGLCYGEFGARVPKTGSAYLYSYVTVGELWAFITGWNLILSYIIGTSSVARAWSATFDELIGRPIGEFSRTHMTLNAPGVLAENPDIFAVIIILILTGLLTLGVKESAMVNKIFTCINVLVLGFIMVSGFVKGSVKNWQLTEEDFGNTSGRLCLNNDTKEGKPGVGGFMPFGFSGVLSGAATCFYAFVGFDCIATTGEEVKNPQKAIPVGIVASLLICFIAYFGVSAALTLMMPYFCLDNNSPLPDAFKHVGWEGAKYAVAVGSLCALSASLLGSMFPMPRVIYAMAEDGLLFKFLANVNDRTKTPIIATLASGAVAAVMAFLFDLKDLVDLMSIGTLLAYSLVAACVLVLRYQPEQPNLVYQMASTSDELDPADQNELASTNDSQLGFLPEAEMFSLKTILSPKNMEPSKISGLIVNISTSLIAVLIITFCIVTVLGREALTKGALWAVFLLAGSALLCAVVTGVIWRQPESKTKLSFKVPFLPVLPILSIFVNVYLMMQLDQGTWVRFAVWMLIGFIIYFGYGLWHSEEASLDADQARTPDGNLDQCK
Set-up: species or system HEK-CAT1 (HEK293 stably transfected); Inhibition of net CAT1-mediated [3H]-L-arginine (100 uM) uptake, 5 min, scintillation counting, vector control subtracted. The settings on record: HEK293, L-arginine 100 uM as substrate; for inhibition at 20 µM: read-out: % Inhibition of L-arginine uptake at 20 µM; for inhibition at 200 µM: read-out: % Inhibition of L-arginine uptake at 200 µM. The protocol: (§1) Uptake and inhibition assays using HEK-CAT1 and HEK-VC cells and L-arginine, L-homoarginine, and ADMA as substrates were performed using the protocol described (Strobel et al. [2012]; Chafai et al. [2017]). Briefly, after incubation, the supernatant was replaced with transport buffer containing [^3H]- L-arginine for 5 min and 2.5 min for medium containing [^3H]-L-homoarginine or [^3H]-ADMA with or without the test compound. The reference drugs were screened at concentrations of 20 µM (Figs. 1A, 2A, and 3A) and 200 µM (Figs. 1B, 2B, and 3B). […] The net uptake was determined by subtracting the total amount taken up by control cells from the amount taken up by CAT1-expressing cells, which was expressed as a percentage of the amount taken up by the control. To determine the inhibitory effects of the drugs on CAT1-mediated transport of L-arginine, L-homoarginine, or ADMA, the control was measured in the absence of the potential inhibitor. The value for the percent inhibition was calculated as: Inhibition (%) = 100 – (V/V0 ^* 100), where V and V0 are the net uptake rates (uptake into HEK-CAT1 cells—uptake into HEK-VC cells) with and without test drugs, respectively. […] Each bar represents the effect of one compound on CAT1-mediated L-arginine (100 μM) uptake as percent inhibition. Data were obtained from at least two independent experiments performed in triplicate (n = 6–9) and each test data from the independent experiment were normalized to the respective control data to get the value of percent inhibition. Negative inhibition values indicate stimulated CAT1-mediated uptake. Data were analyzed using one-way ANOVA and Dunnett’s multiple comparison test with p < 0.05. Bars showing a statistically significant inhibition or transport stimulation are shaded in black

Test [2] concerns the target T1, CAT1 (cationic amino acid transporter 1, CAT1/SLC7A1). Further details: species or system HEK-CAT1 (HEK293 stably transfected); Inhibition of net CAT1-mediated [3H]-L-homoarginine (1 uM) uptake, 2.5 min, scintillation counting, vector control subtracted. The settings on record: HEK293, L-homoarginine 1 uM as substrate; for inhibition at 20 µM: read-out: % Inhibition of L-homoarginine uptake at 20 µM; for inhibition at 200 µM: read-out: % Inhibition of L-homoarginine uptake at 200 µM. The protocol:
as §1, with “L-homoarginine (1” for “L-arginine (100”

Test [3] has the same target. Further details: species or system HEK-CAT1 (HEK293 stably transfected); Inhibition of net CAT1-mediated [3H]-ADMA (1 uM) uptake, 2.5 min, scintillation counting, vector control subtracted. The settings on record: HEK293, ADMA 1 uM as substrate; for inhibition at 20 µM: read-out: % Inhibition of ADMA uptake at 20 µM; for inhibition at 200 µM: read-out: % Inhibition of ADMA uptake at 200 µM. As for the experimental part:
as §1, with “ADMA (1” for “L-arginine (100”

SMILES strings stand for the structures. Where two headings read alike, the source gives them in different places.

As for `Nc1ccn([C@@H]2CS[C@H](CO)O2)c(=O)n1` [Lamivudine], the inhibition at 20 µM is 27.4 ± 4.6% in test [1], -3.4 ± 0.3% in test [2] and -5.3 ± 4% in test [3]. In addition, the figures for the inhibition at 200 µM in test [1], in test [2] and in test [3] were -3.9 ± 4.6%, -3.1 ± 1.4% and 22.9 ± 4.9%, respectively.
On to `CCCN(CCC)S(=O)(=O)c1ccc(C(=O)O)cc1` [Probenecid], for which the inhibition at 20 µM in test [1] was -2.6 ± 3.2%; in test [2], -2.9 ± 2.8%; in test [3], -24.9 ± 8.3%. Also, the inhibition at 200 µM in test [1] is 0.4 ± 2.1%; in test [2], -1.1 ± 2.2%; in test [3], -17.5 ± 1.8%.
Turning to `CC(=O)N[C@@H](CS)C(=O)O` [Acetylcysteine], the inhibition at 20 µM was -6.6 ± 3.7% in test [1], -9 ± 1.5% in test [2] and 3.2 ± 3.2% in test [3]. In addition, the inhibition at 200 µM is 4.6 ± 3.3% in test [1], 7.5 ± 1.3% in test [2] and -6.1 ± 4.3% in test [3].
On to `CNCC[C@H](Oc1cccc2ccccc12)c1cccs1` [Duloxetine], for which the inhibition at 20 µM in test [1] is 6.1 ± 7.4%; in test [2], 7.6 ± 6.5%; in test [3] it was 1.9 ± 5.4%. Moreover, the inhibition at 200 µM was 12.6 ± 2.6% in test [1], 11.9 ± 3.1% in test [2] and -14.2 ± 4.9% in test [3].
For the compound `CO/N=C(\C(=O)N[C@@H]1C(=O)N2C(C(=O)O)=C(COC(N)=O)CS[C@H]12)c1ccco1` [Cefuroxime], the inhibition at 20 µM in test [1] was 17.3 ± 3.5%; in test [2], 16.8 ± 1.6%; in test [3] it was -7.1 ± 2.9%. Further, the results for the inhibition at 200 µM in test [1], in test [2] and in test [3] were -9.8 ± 8.4%, -8.5 ± 5.9% and -11.5 ± 2.8%, respectively.
Turning to `CCN(CC)CCCC(C)Nc1ccnc2cc(Cl)ccc12` (stereo not drawn) [Chloroquine], the inhibition at 20 µM is -6.1 ± 1.1% in test [1], -35.1 ± 5.2% in test [2] and -27 ± 16.2% in test [3]. In addition, the values for the inhibition at 200 µM in test [1], in test [2] and in test [3] were -11.4 ± 2.6%, -54.8 ± 6.9% and -23.1 ± 8.2%, respectively.
As to `CC(C)NCC(O)COc1cccc2ccccc12` (stereo not drawn) [Propranolol], the inhibition at 20 µM in test [1] is -0.9 ± 8.1%; in test [2] it was -21.6 ± 0.7%; in test [3], -27.2 ± 3.6%. Moreover, the inhibition at 200 µM is -1.1 ± 7.8% in test [1], -3.5 ± 2.1% in test [2] and -36.3 ± 9.5% in test [3].
With `C[C@H]1c2cccc(O)c2C(=O)C2=C(O)[C@]3(O)C(=O)C(C(N)=O)=C(O)[C@@H](N(C)C)[C@@H]3[C@@H](O)[C@@H]21` [Doxycycline], the inhibition at 20 µM in test [1] was found to be 9.7 ± 4.1%; in test [2], 9.7 ± 4.1%; in test [3], 3.1 ± 6%. The results for the inhibition at 200 µM in test [1], in test [2] and in test [3] were 6.2 ± 0.6%, 9.6 ± 1.4% and 9.9 ± 3.1%, respectively.
In the case of `CN(C)CCC=C1c2ccccc2CCc2ccccc21` [Amitriptyline], the inhibition at 20 µM in test [1] stood at 35.9 ± 3.6%; in test [2] it was 0.6 ± 1.7%; in test [3], 5.6 ± 2.9%. The inhibition at 200 µM in test [1] is 26.9 ± 4.7%; in test [2] it was 29.7 ± 3.2%; in test [3] it was -13.4 ± 3%.
As to `CCc1nc(N)nc(N)c1-c1ccc(Cl)cc1` [Pyrimethamine], the inhibition at 20 µM in test [1] was 6.9 ± 9.6%; in test [2], -25.8 ± 15.5%; in test [3] it was -37.1 ± 7.2%. The figures for the inhibition at 200 µM in test [1], in test [2] and in test [3] were 31.2 ± 2.3%, 31.6 ± 2.7% and 23.4 ± 0.3%, respectively.
As for `Nc1nc(NC2CC2)c2ncn([C@H]3C=C[C@@H](CO)C3)c2n1` [Abacavir], the inhibition at 20 µM in test [1] is -0.9 ± 1.81%; in test [2], -3.1 ± 2%; in test [3] it was -4.3 ± 2.2%. In addition, the results for the inhibition at 200 µM in test [1], in test [2] and in test [3] were -12.4 ± 6%, -9.8 ± 1.7% and -78.1 ± 1.9%, respectively.
For the compound `CCc1oc2ccccc2c1C(=O)c1cc(Br)c(O)c(Br)c1` [Benzbromarone], the results for the inhibition at 20 µM in test [1], in test [2] and in test [3] were -12.4 ± 6.1%, -10.8 ± 5.3% and -6.9 ± 4.6%, respectively. The figures for the inhibition at 200 µM in test [1], in test [2] and in test [3] were -31.3 ± 4.9%, -23.2 ± 1.6% and -13.2 ± 5.9%, respectively.
Take `CC[C@H]1OC(=O)[C@H](C)[C@@H](O[C@H]2C[C@@](C)(OC)[C@@H](O)[C@H](C)O2)[C@H](C)[C@@H](O[C@@H]2O[C@H](C)C[C@H](N(C)C)[C@H]2O)[C@](C)(OC)C[C@@H](C)C(=O)[C@H](C)[C@@H](O)[C@]1(C)O` [Clarithromycin]: the inhibition at 20 µM is -16.8 ± 2.1% in test [1], -2.4 ± 2.1% in test [2] and -3.9 ± 5.3% in test [3]. The inhibition at 200 µM in test [1] is -14.3 ± 6.2%; in test [2] it was -13.6 ± 3.3%; in test [3], -72.9 ± 1.6%.
Regarding `CN(C)C(=O)C(CCN1CCC(O)(c2ccc(Cl)cc2)CC1)(c1ccccc1)c1ccccc1` [Loperamide], the inhibition at 20 µM in test [1] was determined as 16.9 ± 2.3%; in test [2], 18.9 ± 0.2%; in test [3], 17.6 ± 1.6%. Moreover, the inhibition at 200 µM in test [1] is -3.6 ± 2.1%; in test [2], -2.7 ± 3.9%; in test [3] it was 1.4 ± 2.1%.
On to `Cc1ccc(NC(=O)c2ccc(CN3CCN(C)CC3)cc2)cc1Nc1nccc(-c2cccnc2)n1` [Imatinib], for which the inhibition at 20 µM is -8.2 ± 5.2% in test [1], -24.9 ± 2.1% in test [2] and 11.2 ± 3.4% in test [3]. In addition, the inhibition at 200 µM was -42.8 ± 0.3% in test [1], -20.9 ± 1.1% in test [2] and 20.7 ± 14.1% in test [3].
